What was measured:
[1] = test system: vector-expressing myeloid progenitor cells; conditions: mice, human DHFR variant (Zhao et al. 1994); cited from earlier work
[2] = test system: human myeloid progenitor cells; conditions: in vitro, MTX-containing cultures, human DHFR variant (Flasshove et al. 1995); cited from earlier work
[3] = test system: murine myeloid progenitors; assay: Defined in vitro liquid culture of unseparated murine bone marrow, myeloid progenitor assay after four days; format: cell-based, mice; conditions: TMTX 150 nM; for sensitization of progenitor cells to TMTX: TTI at 1.0 μM or 0.1 μM, 0.1 μM or 1 μM thymidine
Description: FIGS. 1a & 1b a show TTIs effectively block nucleoside salvage and potentiate TMTX toxicity at physiological concentrations of thyrnidine. Unseparated bone marrow from normal C57B1/6 or WBBF1+/+ mice were cultured in DMEM plus dialyzed FBS with or without 150 nM TMTX, […] hypoxanthine and 0.1, 1.0 or 10 μM thymidine. In addition, either A) NBMPR or B) draflazine at 0.1 or 1.0 μM were added to the indicated suspension cultures. Progenitors were assayed by a semisolid methylcellulose-based myeloid progenitor assay after four days of suspension culture.
We developed a defined in vitro liquid culture system to determine the mechanism by which murine myeloid progenitors escape killing with TMTX. This system involves the culture of unseparated murine bone marrow in medium supplemented with optimal concentrations of hematopoietic growth factors (IL-3 at 20 ng/ml, human IL-6 at 50 ng/ml, rat SCF at 50 ng/ml), and either undialyzed fetal bovine serum (FBS) or dialyzed FBS at 15% v/v final concentration, that has been depleted of detectable thymidine and hypoxanthine. The progenitor content is determined four days after culture initiation.
The number of progenitors in cultures without TMTX were similar using either dialyzed or undialyzed serum. However, TMTX addition (150 nM) allowed survival of at least 50% of the myeloid progenitors in cultures containing undialyzed serum compared to 5% progenitor survival in cultures containing dialyzed serum.
Thymidine transport inhibitors (TTI) were added to our defined liquid culture system. […] However, supraphysiological thymidine levels (10 μM) were able to overcome the TTI-specific blockage of thymidine import, restoring full progenitor survival.

[4] = test system: murine myeloid progenitors; assay: In vivo treatment of normal mice; bone marrow cellularity and myeloid progenitor content per femur; conditions: for marrow cellularity / number of myeloid progenitors in the marrow: ip five consecutive days, 24 hrs after last treatment, TMTX 130 mg/kg, NBMPR-P 20 mg/kg, draflazine 20 mg/kg, alone or combined; for number of myeloid progenitors in the marrow: relative to untreated control mice
Description: FIGS. 3a & 3b show thymidine transport inhibitors sensitize murine progenitors to TMTX in vivo Normal C57B1/6, WBBF1+/+ or B6.C-H1^6/By (HW80) mice were administered TMTX (130 mg/kg), NBMPR-P (20 mg/kg) or draflazine (20 mg/kg) alone, or the combination of TMTX+NBMPR-P or TMTX+draflazine ip for five consecutive days. 24 hrs following the last treatment, mice were sacrificed and bone marrow cellularity and myeloid progenitor content per femur were analyzed relative to untreated mice.
To determine if the antifolate trimetrexate (TMTX), could be used to inhibit hematopoietic progenitor cells which had not been genetically modified to contain and express a mutant dihydrofolate reductase, we treated mice with high doses of TMTX and measured the myeloid progenitor and stem cell content in the bone marrow. Mice were intraperitoneally administered 100 or 130 mg/kg TMTX for five consecutive days. Bone marrow cellularity and progenitor content was examined relative to untreated mice 24 hrs after the final treatment. […] Thus, although differentiated murine hematopoietic cells are highly sensitive to TMTX in vivo, immature myeloid progenitors resist it's cytotoxic effects.
In order to determine whether the combination of TMTX and TTIs will kill murine myeloid progenitors in vivo, normal mice were intraperitoneally administered TMTX (130 mg/kg) together with either NBMPR-5′ monophosphate (NBMPR-P) (20 mg/kg) or draflazine (20 mg/kg) for five consecutive days. […] The myeloid progenitor content in the marrow was also measured following these various treatments. […] Thus, while TMTX alone is insufficient for the killing of myeloid progenitors in vivo, either draflazine or NBMPR-P can be used to sensitize progenitors to TMTX thereby allowing elimination of unmodified cells in vivo.

hematopoietic stem cells = assay: Stem cell kill: marrow of treated C57B1/6J donors transplanted into W/Wv mice, hemoglobin electrophoresis; format: in vivo; conditions: donors given five daily doses of TMTX at 100 mg/kg/day
Description: C57B1/6 donor mice were administered either 100 mg/kg TMTX, 100 mg/kg TMTX+20 mg/kg NBMPR-P, or 130 mg/kg TMTX+20 mg/kg NBMPR-P ip for five consecutive days. 24 hrs following the last treatment, bone marrow was harvested and transplanted into genetically anemic W/W^V mice. The hemoglobin phenotype of transplanted mnice was determined after 8 weeks.
The above experiments indicate that the combination of an antifolate (TMTX) and TTIs effectively eliminates unmodified myeloid progenitors. Although selection at the progenitor level should be useful in a number of circumstances, selection at the level of repopulating stem cells should give the most durable and stable selection of vectormodified cells. To test if the combination of TMTX and NBMPR-P could be used to kill unmodified stem cells, C57B1/6J mice were treated with various drug combinations (intraperitoneal injections at the following doses: trimetrexate at 130 mg/kg, NBMPR-P at 20 mg/kg, and draflazine at 20 mg/kg) and then used as donors for bone marrow transplantation. Stem cell viability was measured by hemoglobin electrophoresis patterns in W/Wv mice used as transplant recipients. […]
Repopulation can be monitored by hemoglobin electrophoresis, which can distinguish the pattern obtained from C57B1/6J erthryocytes versus the W/Wv background.

[5] = test system: human myeloid progenitor cells; assay: L22Y-DHFR or neo transduced human peripheral blood progenitors plated in semisolid media with TMTX; format: cell-based; conditions: mobilized human peripheral blood progenitors, L22Y-DHFR versus neo transduced, TMTX 0 to 500 ng/ml in semisolid media
Description: Peripheral blood cells collected following chemotherapy and growth factor mobilization were prestimulated for 48 hrs with IL-3, IL-6 and SCF, followed by coculture on irradiated amphotropic retroviral producers (L22Y-DHFR or neo) for an additional 48 hrs. Nonadherent hematopoietic cells were then assayed for drug resistant progenitors by addition of increasing concentrations of TMTX to the semisolid methylcellulose cultures.
Human progenitor cells were transduced as follows. Mononuclear cells were isolated by passing peripheral blood cells over a Ficoll gradient. These cells were cultured at 5×10^5 cells/ml in the presence of human IL-3 at 20 ng/ml, human IL-6 at 50 ng/ml, and human SCF at 50 ng/ml and 15% v/v fetal calf serum. After 48 hours, these cells were placed on plates containing an irradiated confluent layer of fibroblasts that were producing the amphotropic L22Y vector. The cytokine concentrations during this coculture period were identical to that used during the previous prestimulation phase. Protamine sulfate was also included during the coculture phase at a concentration of 4 μg/ml. After 48 hours of coculture, cells were washed and plated in semisolid media obtained from Stem Cell Technologies according to manufacturers specifications. This media was pretreated with thymidine phosphorylase at 1 unit/3 ml of media. […]

[6] = test system: human CD34 immunoselected progenitors; assay: Human CD34-enriched peripheral blood progenitors in defined liquid culture; format: cell-based; conditions: 1.0 μM draflazine, 150 nM trimetrexate, 100 μM hypoxanthine, thymidine 0 to 1.0 micromolar, dialyzed serum
Description: CD34-enriched, mobilized peripheral blood progenitors were assayed in the defined suspension culture system, as described for murine cells in the legend to FIG. 1. Two separate human samples were examined, and progenitor survival is represented relative to progenitors cultured without TMTX.
We examined the ability of draflazine to potentiate TMTX toxicity of human CD34 immunoselected progenitors in our defined liquid culture system comprising 15% dialyzed fetal calf serum, 20 ng/ml human IL-3, 50 ng/ml human IL-6, and 50 ng/ml human SCF in the presence-or absence of 1.0 μM draflazine, 100 μM hypoxanthine, 150 nM trimetrexate, and varying concentrations of thymidine ranging from 0 to 1.0 micromolar. […] CD34 selection was done using a Ceprate cell column (CellPro) according to the manufacturers instructions.

Question: Which “increase in vector-expressing myeloid progenitor cells following MTX treatment” value [1] does the source give for `CN(Cc1cnc2nc(N)nc(N)c2n1)c1ccc(C(=O)N[C@@H](CCC(=O)O)C(=O)O)cc1` [MTX, methotrexate] here?
Answer: Its value is 2 fold.

Question: What about the “amplification of vector-expressing progenitor cells” value [2] of the same compound?
Answer: Its value is “amplified two-fold”.

Question: For `O=[N+]([O-])c1ccc(CSc2ncnc3c2ncn3[C@@H]2O[C@H](CO)[C@@H](O)[C@H]2O)cc1` [NBMPR, nitrobenzylmercaptopurine riboside], which “sensitization of progenitor cells to TMTX” value [3] is on record?
Answer: The value was “effectively sensitized progenitor cells to TMTX”.

Question: Which marrow cellularity [4] does the source give for `O=[N+]([O-])c1ccc(CSc2ncnc3c2ncn3[C@@H]2O[C@H](COP(=O)(O)O)[C@@H](O)[C@H]2O)cc1` [NBMPR-P, NBMPR-5′ monophosphate] here?
Answer: The marrow cellularity was “neither TTI alone had any measurable effect”.

Question: What about the “number of myeloid progenitors in the marrow” value (“number … in the marrow” below) [4] of the same compound?
Answer: The value was “no effect on progenitor survival”.

Question: Which “hematopoietic repopulating ability of donor marrow” value (hematopoietic stem cells) does the source give for `COc1cc(NCc2ccc3nc(N)nc(N)c3c2C)cc(OC)c1OC` [TMTX, trimetrexate] here?
Answer: Its value is “failed to adversely effect”.

Question: And the “number of myeloid progenitors and stem cells per femur” value ([4]; TMTX 100 or 130 mg/kg ip for five consecutive days, 24 hrs after final treatment)?
Answer: Its value is “remained the same in all groups of mice”.

Question: What about the bone marrow cellularity ([4]; TMTX 100 or 130 mg/kg ip for five consecutive days, 24 hrs after final treatment, relative to untreated mice) of the same compound?
Answer: Its bone marrow cellularity is “severe marrow hypoplasia”.

Question: And the “number … in the marrow” value [4]?
Answer: The value was “modest increase”.

Question: What about the “rescue of myeloid progenitors from TMTX toxicity” value ([3]; dialyzed serum treated with thymidine phosphorylase, hypoxanthine 100 μM alone added) of the same compound?
Answer: The value was “did not rescue myeloid progenitors from TMTX toxicity”.

Question: What about the myeloid progenitor survival ([3]; dialyzed serum, both thymidine and hypoxanthine added) of the same compound?
Answer: Its myeloid progenitor survival is “fully restored myeloid progenitor survival”.

Question: And the progenitor survival ([3]; dialyzed serum, four days)?
Answer: Its progenitor survival is 5%.

Question: And the “restoration of TMTX resistance of progenitors” value ([3]; dialyzed serum, thymidine 1.0 μM alone added)?
Answer: The value was “did not restore TMTX resistance”.

Question: And the “survival of myeloid progenitors” value ([3]; undialyzed serum, four days)?
Answer: Its value is “at least 50%”.

Question: What about the “TMTX resistance of L22Y-DHFR transduced progenitors” value [5] of the same compound?
Answer: The value was “increased TMTX-resistance relative to control (neo) transduced progenitor cells”.

Question: With `NC(=O)C1CN(CCCCC(c2ccc(F)cc2)c2ccc(F)cc2)CCN1CC(=O)Nc1c(Cl)cc(N)cc1Cl` (stereo not shown) [draflazine] as the compound, how does the “potentiation of TMTX toxicity” value [6] read?
Answer: The value was “effectively potentiated TMTX toxicity”.

Question: And the marrow cellularity [4]?
Answer: Its marrow cellularity is “neither TTI alone had any measurable effect”.

Question: And the “number … in the marrow” value [4]?
Answer: The value was “no effect on progenitor survival”.

Question: What about the “sensitization of progenitor cells to TMTX” value [3] of the same compound?
Answer: Its value is “effectively sensitized progenitor cells to TMTX”.

From patent US6500421B1, “In vivo selection of primitive hematopoietic cells” (St. Jude Children's Research Hospital, priority 1999, dated 2002)
